{"source": "patent US8440794B2", "about": "“Peptide sequences, their branched form and use thereof for antimicrobial applications” (Universita' Degli Studi di Siena, priority 2008, dated 2013)", "key": {"E. coli W03BG0025": {"system": "E. coli W03BG0025", "assay_type": "cell-based, Escherichia coli", "conditions": "W03BG0025, 24 h", "protocol": "(§1) M33, […], M35 and M36 MICs were determined against strains of several bacterial species, including Gram-negative pathogens and also Staphylococcus aureus (Table 1). MICs in the micromolar range were observed against several Gram-negatives including Pseudomonas aeruginosa, Acinetobacter baumannii and most Enterobacteriaceae, with the exception of Proteus mirabilis, Serratia marcescens and Burkholderia cepacia. Activity of peptides was retained against MDR strains with various resistance mechanisms (such as extended-spectrum beta-lactamases and carbapenemases), including MDR P. aeruginosa strains from CF patients. Antimicrobial profile of M33, […] and potency were overall similar to those of polymyxin B, although M33, M34, M35 and M36 also appeared to have some activity against S. aureus (Table 1)."}, "P. aeruginosa VR-143/97": {"system": "P. aeruginosa VR-143/97", "experiment": "In vivo antibacterial activity, mice infected ip with lethal amount of MDR P. aeruginosa VR-143/97", "parameters": "species or system Balb-c mice", "conditions": "MDR P. aeruginosa VR-143/97 1.5×10^7 CFU ip; single dose 25 mg/Kg", "protocol": "FIG. 4. In vivo antibacterial activity of tetra-branched M33 peptide. A, Balb-c mice (20 g) were intra-peritoneally injected with a lethal amount of E. coli TG1 cells (1.5×10^9 CFU). Continuous line (Ctr) indicates mice only injected ip with bacteria and no M33. Broken line indicates mice injected ip with bacteria and a single injection of M33 peptide 10 mg/Kg 30 minutes later. B, Balb-c mice (20 g) were intra-peritoneally injected with a lethal amount of P. aeruginosa cells (ATCC 27853 1×10^7 CFU). Continuous line (Ctr) indicates mice which only received bacteria; other groups received bacteria and a single dose of M33 30 minutes later (see figure for doses of M33). C, Balb-c mice (20 g) were intra-peritoneally injected with a lethal amount of P. aeruginosa cells (multi drug resistant VR 147 clinical isolate, 1.5×10^7 CFU). Continuous line (Ctr) indicates mice which only received bacteria; broken line indicates mice which received bacteria and a single dose of M33 25 mg/Kg. D, Balb-c mice (20 g) were intra-peritoneally injected with a lethal amount of P. aeruginosa cells (ATCC 27853 1×10^7 CFU). […]\nTetra-branched M33 peptide was analysed for its antibacterial activity in mice infected with lethal amounts of bacteria. […]"}, "K pneumoniae C8-27": {"system": "K pneumoniae C8-27", "assay_type": "cell-based, Klebsiella pneumoniae", "conditions": "C8-27, 24 h", "protocol": "as §1"}, "K pneumoniae FIPP-1": {"system": "K pneumoniae FIPP-1", "assay_type": "cell-based, Klebsiella pneumoniae", "conditions": "FIPP-1, 24 h", "protocol": "as §1"}, "K pneumoniae 7086042": {"system": "K pneumoniae 7086042", "assay_type": "cell-based, Klebsiella pneumoniae", "conditions": "7086042, 24 h", "protocol": "as §1"}}, "note": "Where a SMILES comes first, the peptide text is derived from it. Bridges are numbered along the chain shown (N, C = ends). Roman numbers before positions name the chains, in order. [ ]: non-standard residue; d: D form. βAla = NCCC(=O)O"}
{"smiles": "CC[C@H](C)[C@H](NC(=O)[C@H](CCCCN)NC(=O)[C@@H](N)CCCCN)C(=O)N[C@@H](CCCNC(=N)N)C(=O)N[C@H](C(=O)N[C@@H](CCCNC(=N)N)C(=O)N[C@@H](CC(C)C)C(=O)N[C@@H](CO)C(=O)N[C@@H](C)C(=O)NCCCC[C@H](NC(=O)[C@H](C)NC(=O)[C@H](CO)NC(=O)[C@H](CC(C)C)NC(=O)[C@H](CCCNC(=N)N)NC(=O)[C@@H](NC(=O)[C@H](CCCNC(=N)N)NC(=O)[C@@H](NC(=O)[C@H](CCCCN)NC(=O)[C@@H](N)CCCCN)[C@@H](C)CC)C(C)C)C(=O)NCCCC[C@H](NC(=O)[C@H](CCCCNC(=O)[C@H](C)NC(=O)[C@H](CO)NC(=O)[C@H](CC(C)C)NC(=O)[C@H](CCCNC(=N)N)NC(=O)[C@@H](NC(=O)[C@H](CCCNC(=N)N)NC(=O)[C@@H](NC(=O)[C@H](CCCCN)NC(=O)[C@@H](N)CCCCN)[C@@H](C)CC)C(C)C)NC(=O)[C@H](C)NC(=O)[C@H](CO)NC(=O)[C@H](CC(C)C)NC(=O)[C@H](CCCNC(=N)N)NC(=O)[C@@H](NC(=O)[C@H](CCCNC(=N)N)NC(=O)[C@@H](NC(=O)[C@H](CCCCN)NC(=O)[C@@H](N)CCCCN)[C@@H](C)CC)C(C)C)C(=O)NCCC(=O)O)C(C)C", "note": "[M33, KKIRVRLSA] (I: H-KKIRVRLSAKK[βAla]-OH / II: H-KKIRVRLSAK / III: H-KKIRVRLSA / IV: H-KKIRVRLSA; amide I:10-IV:C, I:11-II:C, II:10-III:C; N-terminus assumed)", "values": [{"measurement": "MIC", "setting": "E. coli W03BG0025", "result": 0.7, "unit": "µM"}, {"measurement": "Animals protected", "setting": "P. aeruginosa VR-143/97", "result": 100, "unit": "%"}, {"measurement": "MIC", "setting": "K pneumoniae C8-27", "result": 1.5, "unit": "µM"}, {"measurement": "MIC", "setting": "K pneumoniae FIPP-1", "result": 3, "unit": "µM"}, {"measurement": "MIC", "setting": "K pneumoniae 7086042", "result": 3, "unit": "µM"}]}
